{
  "source": "patent US10053427B2",
  "about": "“Crystalline forms of cabozantinib phosphate and cabozantinib hydrochloride” (priority 2015, dated 2018)",
  "key": {"[1]": {"settings": "humidity (75%) and high temperature (40° C.); reported in WO2010/083414; cited from earlier work"}, "[2]": {"experiment": "Karl Fischer coulometric titration (water content)", "type": "physicochemical", "method": "Ca. 10-20 mg of solid material was accurately weighed into a container and the weight noted. The solid was then manually introduced into the titration cell of a Mettler Toledo C30 Compact Titrator. The titration was initiated once the sample had fully dissolved in the cell. The vial was back-weighed after the addition of the solid and the weight of the added solid entered into the instrument. The water content was calculated automatically by the instrument as a percentage and the data printed."}, "[3]": {"experiment": "Dynamic vapour sorption (DVS), water absorption", "type": "physicochemical", "settings": "between 20% and 70% RH"}, "[4]": {"experiment": "Aqueous solubility measurement", "type": "physicochemical", "settings": "thermodynamic from solid; deionized water, shaking ca. 24 h, ambient temperature (ca. 22° C.)", "method": "Each salt was individually slurried in deionized water and subjected to shaking for ca. 24 h at ambient temperature (ca. 22° C.). The resulting saturated solutions were filtered and analyzed by HPLC analysis. XRPD analysis was carried out on any solid retained after the solubility experiment."}, "[5]": {"settings": "reported in WO2010/083414; cited from earlier work"}},
  "note": "Counter-ions that a name gives are not always drawn.",
  "data": [
    {"smiles": "COc1cc2nccc(Oc3ccc(NC(=O)C4(C(=O)Nc5ccc(F)cc5)CC4)cc3)c2cc1OC", "note": "[cabozantinib hydrochloride salt]", "values": [
      {"measurement": "Physical stability (hydrate formation / phase change)", "setting": "[1]", "value": "Possible hydrate formation and a phase change"}
    ]},
    {"smiles": "COc1cc2nccc(Oc3ccc(NC(=O)C4(C(=O)Nc5ccc(F)cc5)CC4)cc3)c2cc1OC.O=P(O)(O)O", "note": "[Cabozantinib phosphate Form A, N-{4-[(6,7-dimethoxy-4-quinolinyl)oxy]phenyl}-N′-(4-fluorophenyl)-1,1-cyclopropanedicarboxamide phosphate]", "values": [
      {"measurement": "KF analysis water content", "setting": "[2]", "value": 0.5, "unit": "weight-%"},
      {"measurement": "Water absorption", "setting": "[3]; DVS", "value": 1, "unit": "%"},
      {"measurement": "solubility at 24 h", "setting": "[4]", "value": 90, "unit": "µg/mL"}
    ]},
    {"smiles": "COc1cc2nccc(Oc3ccc(NC(=O)C4(C(=O)Nc5ccc(F)cc5)CC4)cc3)c2cc1OC.Cl", "note": "[Cabozantinib hydrochloride Form A-1, N-{4-[(6,7-dimethoxy-4-quinolinyl)oxy]phenyl}-N′-(4-fluorophenyl)-1,1-cyclopropanedicarboxamide hydrochloride]", "values": [
      {"measurement": "Water absorption (DVS)", "setting": "[3]; DVS", "value": 0.07, "unit": "weight-%"},
      {"measurement": "Hygroscopicity (DVS)", "setting": "[3]", "value": "non hygroscopic"},
      {"measurement": "solubility at 24 h", "setting": "[4]", "value": 210, "unit": "µg/mL"}
    ]},
    {"smiles": "COc1cc2nccc(Oc3ccc(NC(=O)C4(C(=O)Nc5ccc(F)cc5)CC4)cc3)c2cc1OC", "note": "[(L)-malate salt]", "values": [
      {"measurement": "Hygroscopicity", "setting": "[5]", "value": "non-hygroscopic"}
    ]}
  ]
}
